Experimental data published in PubChem BioAssay AID248 (DTP/NCI, 2004).
Several values for one entry are separate records, joined by “and”; a condition that tells them apart may be missing. Equal entries are not always repeated. Toxic doses and inconclusive results are not listed.

System: L1210 leukemia ip in BDF1 mice, survival T/C
Experiment: NCI In Vivo Anticancer Drug Screen. Data for tumor model L1210 Leukemia (intraperitoneal) in B6D2F1 (BDF1) mice
Settings: endpoint: mean survival time, higher = longer survival
Procedure, shortened: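 Transplantable tumor model; survival measured in treated vs vehicle control mice. Value = treated/control.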

[1] = dose: 100.0 mg/kg/injection, schedule: Q01DX001 (ip), vehicle: other
[2] = dose: 200.0 mg/kg/injection, schedule: Q01DX001 (ip), vehicle: other
[3] = dose: 400.0 mg/kg/injection, schedule: Q01DX001 (ip), vehicle: other
[4] = dose: 100.0 mg/kg/injection, schedule: Q04DX003 (ip), vehicle: saline with Tween-80
[5] = dose: 400.0 mg/kg/injection, schedule: Q04DX003 (ip), vehicle: saline with Tween-80
[6] = dose: 100.0 mg/kg/injection, schedule: Q01DX009 (ip), vehicle: Klucel (hydroxypropylcellulose) (HPC)
[7] = dose: 100.0 mg/kg/injection, schedule: Q04DX002 (ip), vehicle: Klucel (hydroxypropylcellulose) (HPC)
[8] = dose: 200.0 mg/kg/injection, schedule: Q01DX009 (ip), vehicle: Klucel (hydroxypropylcellulose) (HPC)
[9] = dose: 200.0 mg/kg/injection, schedule: Q04DX002 (ip), vehicle: Klucel (hydroxypropylcellulose) (HPC)
[10] = dose: 400.0 mg/kg/injection, schedule: Q01DX009 (ip), vehicle: Klucel (hydroxypropylcellulose) (HPC)
[11] = dose: 400.0 mg/kg/injection, schedule: Q04DX002 (ip), vehicle: Klucel (hydroxypropylcellulose) (HPC)
[12] = dose: 100.0 mg/kg/injection, schedule: Q04DX002 (ip), vehicle: saline with Tween-80
[13] = dose: 200.0 mg/kg/injection, schedule: Q04DX002 (ip), vehicle: saline with Tween-80
[14] = dose: 400.0 mg/kg/injection, schedule: Q04DX002 (ip), vehicle: saline with Tween-80
[15] = dose: 12.5 mg/kg/injection, schedule: Q01DX009 (ip), vehicle: saline with Tween-80
[16] = dose: 50.0 mg/kg/injection, schedule: Q01DX009 (ip), vehicle: saline with Tween-80
[17] = dose: 100.0 mg/kg/injection, schedule: Q01DX009 (ip), vehicle: saline with Tween-80
[18] = dose: 200.0 mg/kg/injection, schedule: Q01DX009 (ip), vehicle: saline with Tween-80
[19] = dose: 400.0 mg/kg/injection, schedule: Q01DX009 (ip), vehicle: saline with Tween-80
[20] = dose: 200.0 mg/kg/injection, schedule: Q04DX003 (ip), vehicle: saline with Tween-80

CN(C)CC(=O)Nc1ccc(NC(=O)c2ccc(C(=O)Nc3ccc(NC(=O)CN(C)C)cc3)cc2)cc1
T/C (dose: 15.0 mg/kg/injection, schedule: Q01DX Z (ip), vehicle: methylcellulose (MC)): 104 % of control | T/C (dose: 30.0 mg/kg/injection, schedule: Q01DX Z (ip), vehicle: methylcellulose (MC)): 106 % of control | T/C (dose: 60.0 mg/kg/injection, schedule: Q01DX Z (ip), vehicle: methylcellulose (MC)): 93 % of control | T/C (dose: 120.0 mg/kg/injection, schedule: Q01DX Z (ip), vehicle: methylcellulose (MC)): 95 % of control

Oc1ccc(N=Cc2ccccc2O)cc1.[Co]
T/C [1]: 98 % of control | T/C [2]: 94 % of control | T/C [3]: 102 % of control

CCC/C(=N\Nc1ccc([N+](=O)[O-])cc1[N+](=O)[O-])c1ccccc1
T/C [4]: 91 % of control | T/C [5]: 86 % of control

CCCCS(=O)(=O)Cc1ccccc1
T/C [6]: 98 % of control | T/C [7]: 100 % of control | T/C [8]: 103 % of control | T/C [9]: 96 % of control | T/C [10]: 98 % of control | T/C [11]: 93 % of control

CC(C)(C)SC(=O)Cc1ccc([N+](=O)[O-])cc1
T/C (dose: 50.0 mg/kg/injection, schedule: Q04DX002 (ip), vehicle: saline with Tween-80): 90 % of control | T/C [12]: 100 % of control | T/C [13]: 93 % of control | T/C [14]: 87 % of control

COc1cccc(CN(C)C)c1C(O)c1ccccc1 (configuration not stated)
T/C (dose: 50.0 mg/kg/injection, schedule: Q01DX001 (ip), vehicle: carboxymethylcellulose (CMC)): 95 % of control | T/C (dose: 100.0 mg/kg/injection, schedule: Q01DX001 (ip), vehicle: carboxymethylcellulose (CMC)): 97 % of control | T/C (dose: 200.0 mg/kg/injection, schedule: Q01DX001 (ip), vehicle: carboxymethylcellulose (CMC)): 106 % of control

NNC(=O)c1ccc(Cl)cc1Nc1ccc(F)cc1
T/C (dose: 25.0 mg/kg/injection, schedule: Q04DX003 (ip), vehicle: saline): 94 % of control | T/C (dose: 50.0 mg/kg/injection, schedule: Q04DX003 (ip), vehicle: saline): 100 % of control | T/C (dose: 100.0 mg/kg/injection, schedule: Q01DX001 (ip), vehicle: saline sonified): 111 % of control

CCOC(=O)CC1COC(=O)C1C(=O)OCC (configuration not stated)
T/C [15]: 105 % of control | T/C (dose: 25.0 mg/kg/injection, schedule: Q01DX009 (ip), vehicle: saline with Tween-80): 105 % of control and 120 % of control | T/C [16]: 95 % of control | T/C [17]: 98 % of control and 122 % of control | T/C [18]: 118 % of control | T/C [19]: 106 % of control

COc1ccc2c(c1)c1c(C)c3cnccc3c(C)c1n2C
T/C (dose: 25.0 mg/kg/injection, schedule: Q01DX001 (ip), vehicle: saline): 100 % of control | T/C (dose: 50.0 mg/kg/injection, schedule: Q01DX001 (ip), vehicle: saline): 102 % of control | T/C (dose: 89.0 mg/kg/injection, schedule: Q01DX001 (ip), vehicle: carboxymethylcellulose (CMC)): 102 % of control | T/C (dose: 265.0 mg/kg/injection, schedule: Q01DX001 (ip), vehicle: saline): 152 % of control | T/C (dose: 267.0 mg/kg/injection, schedule: Q01DX001 (ip), vehicle: carboxymethylcellulose (CMC)): 107 % of control | T/C (dose: 400.0 mg/kg/injection, schedule: Q01DX001 (ip), vehicle: carboxymethylcellulose (CMC)): 117 % of control | T/C (dose: 400.0 mg/kg/injection, schedule: Q01DX001 (ip), vehicle: saline): 124 % of control

CC(=O)Nc1ccc(SCCCc2c(N)nc(N)nc2N)cc1
T/C (dose: 100.0 mg/kg/injection, schedule: Q04DX003 (ip), vehicle: Klucel (hydroxypropylcellulose) (HPC)): 100 % of control | T/C (dose: 200.0 mg/kg/injection, schedule: Q04DX003 (ip), vehicle: Klucel (hydroxypropylcellulose) (HPC)): 99 % of control | T/C (dose: 400.0 mg/kg/injection, schedule: Q04DX003 (ip), vehicle: Klucel (hydroxypropylcellulose) (HPC)): 97 % of control

COC1=C(Cl)C(=O)C(OC)=C(Cl)C1=O
T/C (dose: 5.0 mg/kg/injection, schedule: Q01DX001 (ip), vehicle: saline): 97 % of control | T/C (dose: 10.0 mg/kg/injection, schedule: Q01DX001 (ip), vehicle: saline): 95 % of control | T/C (dose: 20.0 mg/kg/injection, schedule: Q01DX001 (ip), vehicle: saline): 106 % of control | T/C (dose: 40.0 mg/kg/injection, schedule: Q01DX001 (ip), vehicle: saline): 101 % of control

O=COC(CCCc1ccccc1)c1ccc2c(c1)OCO2 (configuration not stated)
T/C (dose: 100.0 mg/kg/injection, schedule: Q04DX003 (ip), vehicle: other): 93 % of control | T/C (dose: 200.0 mg/kg/injection, schedule: Q04DX003 (ip), vehicle: other): 93 % of control | T/C (dose: 400.0 mg/kg/injection, schedule: Q04DX003 (ip), vehicle: other): 98 % of control

CCN(CC)CCCNC(C)=O
T/C (dose: 100.0 mg/kg/injection, schedule: Q01DX009 (ip), vehicle: saline): 96 % of control | T/C (dose: 200.0 mg/kg/injection, schedule: Q01DX009 (ip), vehicle: saline): 98 % of control

Cc1ccc(C(=O)NCCCOc2ccc([N+](=O)[O-])cc2Cl)cc1S(=O)(=O)F
T/C [17]: 106 % of control | T/C [4]: 86 % of control | T/C [18]: 96 % of control | T/C [20]: 97 % of control | T/C [19]: 98 % of control | T/C [5]: 103 % of control

CC(C)(C)OC(=O)C(N)CC(N)=O (configuration not stated)
T/C [6]: 106 % of control | T/C [7]: 103 % of control | T/C [8]: 106 % of control | T/C [9]: 88 % of control | T/C [10]: 98 % of control | T/C [11]: 98 % of control

CCc1cccc(OC/C=C(\C)CC/C=C(\C)CCC2OC2(C)C)c1 (configuration not stated)
T/C [12]: 103 % of control | T/C [13]: 97 % of control | T/C [14]: 100 % of control

Cc1c(Cl)cccc1NC(=O)COc1ccc(Cl)cc1Cl
T/C [17]: 88 % of control | T/C [18]: 93 % of control | T/C [19]: 98 % of control

O=C1CC(=O)C(Br)=C1Br
T/C (dose: 1.5 mg/kg/injection, schedule: Q04DX003 (ip), vehicle: saline with Tween-80): 101 % of control | T/C (dose: 3.0 mg/kg/injection, schedule: Q04DX003 (ip), vehicle: saline with Tween-80): 105 % of control

CCCCCCCCCCCCCCCCN1CNC(=O)NC1
T/C [1]: 98 % of control | T/C [2]: 98 % of control | T/C [3]: 95 % of control

CC(=O)OC1CCC2(C)C(CCC3C2CCC2(C)C3CC3OC(CCC(C)(C)O)C(C)C32)C1 (configuration not stated)
T/C (dose: 100.0 mg/kg/injection, schedule: Q01DX001 (ip), vehicle: saline with Tween-80): 92 % of control | T/C (dose: 200.0 mg/kg/injection, schedule: Q01DX001 (ip), vehicle: saline with Tween-80): 92 % of control | T/C (dose: 400.0 mg/kg/injection, schedule: Q01DX001 (ip), vehicle: saline with Tween-80): 92 % of control

CN=C([Se])NC
T/C (dose: 3.13 mg/kg/injection, schedule: Q01DX009 (ip), vehicle: saline with Tween-80): 106 % of control | T/C (dose: 3.13 mg/kg/injection, schedule: Q04DX002 (ip), vehicle: saline with Tween-80): 98 % of control | T/C (dose: 6.25 mg/kg/injection, schedule: Q01DX009 (ip), vehicle: saline with Tween-80): 103 % of control | T/C (dose: 6.25 mg/kg/injection, schedule: Q04DX002 (ip), vehicle: saline with Tween-80): 95 % of control | T/C [15]: 97 % of control | T/C (dose: 12.5 mg/kg/injection, schedule: Q04DX002 (ip), vehicle: saline with Tween-80): 87 % of control

NNC(=S)Nc1cccc(Cl)c1
T/C (dose: 75.0 mg/kg/injection, schedule: Q01DX001 (ip), vehicle: saline): 103 % of control | T/C (dose: 150.0 mg/kg/injection, schedule: Q01DX001 (ip), vehicle: saline): 102 % of control

C=CN1C(=O)N(C=C)C(C)(CC(C)C)C1=O (configuration not stated)
T/C [16]: 104 % of control | T/C [17]: 103 % of control | T/C [4]: 92 % of control | T/C [18]: 103 % of control | T/C [20]: 92 % of control

Clc1ccc(/C=N\Nc2ccccc2)c(Cl)c1
T/C (dose: 100.0 mg/kg/injection, schedule: Q01DX001 (ip), vehicle: Klucel (hydroxypropylcellulose) (HPC)): 103 % of control | T/C (dose: 200.0 mg/kg/injection, schedule: Q01DX001 (ip), vehicle: Klucel (hydroxypropylcellulose) (HPC)): 101 % of control | T/C (dose: 400.0 mg/kg/injection, schedule: Q01DX001 (ip), vehicle: Klucel (hydroxypropylcellulose) (HPC)): 109 % of control
